# Measured values as given in PubChem BioAssay (NCI).
# Where “and” joins values, the source holds several entries; their conditions need not be identical. Equal values may be shown once.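 Five concentrations, 48 hours, 96-well plates. The concentration for 50% growth inhibition is given as GI50. TGI marks complete inhibition of growth.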
# What was measured:
# Test in all cases: DTP human tumour cell line panel, 48 h
# EKVX NSCLC = system: EKVX NSCLC
# HOP-62 NSCLC = system: HOP-62 NSCLC
# SK-OV-3 ovarian = system: SK-OV-3 ovarian
# OVCAR-8 ovarian = system: OVCAR-8 ovarian
# HS 578T breast = system: HS 578T breast
# SF-539 CNS = system: SF-539 CNS
# UACC-257 melanoma = system: UACC-257 melanoma
# MOLT-4 leukemia = system: MOLT-4 leukemia
SMILES,GI50 (EKVX NSCLC),TGI (EKVX NSCLC),GI50 (HOP-62 NSCLC),TGI (HOP-62 NSCLC),GI50 (SK-OV-3 ovarian),TGI (SK-OV-3 ovarian),GI50 (OVCAR-8 ovarian),TGI (OVCAR-8 ovarian),GI50 (HS 578T breast),TGI (HS 578T breast),GI50 (SF-539 CNS),TGI (SF-539 CNS),GI50 (UACC-257 melanoma),TGI (UACC-257 melanoma),GI50 (MOLT-4 leukemia),TGI (MOLT-4 leukemia)
CC(=O)Nc1cccc(-n2c(=O)n(C3CC3)c(=O)c3c(Nc4ccc(I)cc4F)n(C)c(=O)c(C)c32)c1,0.0135 µM and 0.0443 µM,> 71 µM,0.0121 µM,> 50.7 µM,8.58 µM,> 85.4 µM,4.22 µM and > 6.71 µM,> 49.6 µM,4.06 µM and 4.64 µM,43.8 µM and > 10 µM,1.15 µM and > 3.69 µM,22.1 µM and > 10 µM,< 0.01 µM and 0.00182 µM,< 0.01 µM and 0.0126 µM,6.96 µM and > 9.64 µM,> 100 µM
C[C@@H]1CC[C@H]2C(COCC3=C(C(F)(F)F)O[C@@H]4O[C@@]5(C)CC[C@H]6[C@H](C)CC[C@@H]3[C@@]46OO5)=C(C(F)(F)F)O[C@@H]3O[C@@]4(C)CC[C@@H]1[C@]32OO4,0.0333 µM,> 100 µM,,,> 100 µM,> 100 µM,< 0.0178 µM,> 100 µM,0.152 µM,> 100 µM,< 0.01 µM,> 100 µM,,,< 0.0233 µM,> 100 µM
COc1ccc(NC(=O)Nc2n[nH]c3ccccc23)cc1,> 100 µM,> 100 µM,> 100 µM,> 100 µM,> 100 µM,> 100 µM,> 100 µM,> 100 µM,> 100 µM,> 100 µM,> 100 µM,> 100 µM,> 100 µM,> 100 µM,> 100 µM,> 100 µM
COc1cc(/C=C\[N+](=O)[O-])ccc1O,11.8 µM,24.6 µM,3.21 µM,13.8 µM,12.7 µM,25.9 µM,3.21 µM,12.1 µM,4.71 µM,28.8 µM,2.03 µM,5.18 µM,2.42 µM,6.77 µM,2.76 µM,7.23 µM
Cc1cc2nc3c4cc(Cl)ccc4n(CCN(C)C)c3nc2cc1C,2.45 µM,6.77 µM,1.53 µM,4.57 µM,2.75 µM,10.6 µM,1.4 µM,6.33 µM,2.35 µM,6.99 µM,1.55 µM,2.94 µM,1.76 µM,3.59 µM,0.586 µM,3.44 µM
Cc1nn(-c2ccc(S(=O)(=O)[O-])cc2)c([O-])c1N=[N+](C)c1ccc(-c2ccc(N=Nc3ccc4c(S(=O)(=O)[O-])cc(S(=O)(=O)[O-])c(N)c4c3[O-])c([O-])c2)cc1[O-].[Cu+2].[Cu+2].[Na+],> 100 µM,> 100 µM,> 100 µM,> 100 µM,> 100 µM,> 100 µM,> 100 µM,> 100 µM,> 100 µM,> 100 µM,> 100 µM,> 100 µM,> 100 µM,> 100 µM,> 100 µM,> 100 µM
O=C(c1cccs1)c1c(C(F)(F)F)n([O-])c2ccccc2[n+]1=O,0.798 µM,1.55 µM,0.376 µM,1.24 µM,2.11 µM,7.56 µM,0.601 µM,1.94 µM,1.03 µM,2.91 µM,1.11 µM,3.42 µM,,,2.32 µM,4.19 µM
COc1cc2c3c(cccc3c1)C(=O)N(CCN1CCCC1)C2=O,,,2.1 µM,5.27 µM,3.27 µM,14.5 µM,1.66 µM,> 100 µM,3.98 µM,13 µM,1.98 µM,5.14 µM,,,3.09 µM,> 100 µM
N/C(CC(=O)Nc1cc(C(F)(F)F)ccc1Cl)=N\O,,> 100 µM,,> 100 µM,,> 100 µM,,> 100 µM,,> 100 µM,,> 100 µM,,> 100 µM,,> 100 µM
CN(C)CC(=O)N1CCC(c2ccc(NC(=O)c3ncc(C#N)[nH]3)c(C3=CCCCC3)c2)CC1,14.1 µM,28 µM,7.07 µM,19.4 µM,5.33 µM,17.4 µM,8.34 µM,24 µM,2.18 µM,12.4 µM,3.5 µM,15 µM,2.17 µM,4.8 µM,3.72 µM,12.7 µM
COc1ccc(-c2nn(-c3cccc(Cl)c3)cc2C2CC(c3ccccc3)=NN2C(C)=O)cc1 (stereo not drawn),8.75 µM,> 100 µM,2.62 µM,6.4 µM,6.85 µM,43.2 µM,4.75 µM,> 100 µM,2.81 µM,20.1 µM,5.4 µM,58.7 µM,32.1 µM,> 100 µM,> 100 µM,> 100 µM
COc1cc(-n2cc(-c3ccc(Cl)c(Cl)c3)nc2SCc2ccccc2)cc(OC)c1OC,> 100 µM,> 100 µM,> 100 µM,> 100 µM,> 100 µM,> 100 µM,> 100 µM,> 100 µM,> 100 µM,> 100 µM,> 100 µM,> 100 µM,> 100 µM,> 100 µM,55.9 µM,> 100 µM
C[C@@H]1CC[C@@H]2[C@@H]1[C@H](OC(=O)/C=C/c1ccccc1)[C@]1(c3ccccc3)C[C@@H](OC(=O)CO)[C@@]2(C)O1,12.6 µM,35.8 µM,16.2 µM,31.1 µM,23.4 µM,55.6 µM,6.71 µM,34.8 µM,0.112 µM,0.708 µM,14.6 µM,28.3 µM,21.1 µM,43.1 µM,6.86 µM,33.9 µM
CC1(C)N=C(N)N=C(N)N1c1ccc(CCCCc2ccc(S(=O)(=O)F)cc2)cc1,,,3.86 µM,20.1 µM,15.5 µM,> 85 µM,1.47 µM,28.6 µM,13.2 µM,46 µM,0.458 µM,11.6 µM,2.07 µM,18.3 µM,1.41 µM,24.3 µM
COc1ccc(/C=C/C=C(/C#N)C(N)=S)cc1,77.3 µM,> 100 µM,29.8 µM,94.9 µM,96.1 µM,> 100 µM,21.5 µM,54.3 µM,62.5 µM,> 100 µM,34.8 µM,> 100 µM,20.4 µM,41.4 µM,,
